Values of other authors as cited in US20240164409A1, “A METHOD OF REDUCING METHANE PRODUCTION IN A RUMINANT ANIMAL” (DIT AgTech Limited, priority 2021, published 2024).
In brackets after ≈: the same amount, converted by molar mass.

Details: for Characterised as: water solubility in words

Row | Compound | Solubility in water [µg/mL] | Characterised as
1 | BrC(Br)Br [Bromoform] | 3200 (≈ 12.7 mM) | Sparingly soluble
2 | O=[N+]([O-])OCCCO [3-nitrooxypropanol] | – | Soluble
